In patent US12239662B2, “Compositions for inhibiting anaerobic microorganisms” (LPOXY THERAPEUTICS, INC, priority 2020, dated 2025):
Like-named read-outs stand apart in the source and are kept apart here.

Legend:
[1] = up to the maximum bolus tested, 200 microliters every 6 hours (8 mL/kg per bolus; 32 mL/kg/day)
Procedure: In a separate experiment using the above conditions the tolerance of bolus injection of 100% oxygen gas was tested.

[2] = test system: Clostridioides difficile ATCC 43255; details: for onset of action: compared between treatment groups; for cure rate: no recurrence over 14 days after inoculation; for clinical severity and recovery: total clinical score and daily weights, compared to infection control group; for survival: treatment study day 0 to day 4, followed 14 days after inoculation, 10 mice per group
Excerpt: Thirty C57BL/6 female mice (18-22 g) fitted with duodenal catheters externalized and fitted with access button ports were purchased from Charles River Laboratories and singly housed in a temperature and humidity-controlled room with a 12-hour light cycle. The mice were divided into 3 groups of 10. All procedures used in these experimental protocols were in compliance with the Animal Welfare Act, the Guide for the Care and Use of Laboratory Animals, and the Office of Laboratory Animal Welfare.
The mice were pretreated with an antibiotic cocktail in their drinking water for 8 consecutive days. This antibiotic cocktail was composed of 1% glucose, 500 mcg/mL kanamycin, 44 mcg/mL gentamicin, 1062.5 units per milliliter colistin, 269 mcg/mL metronidazole, 156 mcg/mL ciprofloxacin, 100 mcg/mL ampicillin, and 56 mcg/mL vancomycin. The antibiotic cocktail and drinking water was replaced every 2 to 3 days. Five days prior to infection the antibiotic water was removed and normal drinking water was provided to the animals. Three days prior to infection the animals received a single dose of clindamycin 10 mg per kilogram via oral administration in a volume of 10 mL per kilogram.
On study Day 0 mice were inoculated with the bacterial suspension of 5×10^5 CFU Clostridioides difficile ATCC 43255 via oral gavage. Eight hours after inoculation administration of vehicle, antibiotic control, and test article was initiated according to the following. The vehicle a.k.a. infection control group of 10 mice received 80 μL per hour 100% pure nitrogen gas via duodenal catheter. The infection control group of 10 mice received 50 mg/kg vancomycin via oral gavage once daily. […] Administration was continued from study day 0 to study day 4, a total of 5 days. The mice were followed for 14 days after inoculum recording daily weights and clinical observations. Animals that appeared severely moribund were euthanized. At the end of the study all animals were humanely euthanized.

| SMILES | adverse effects of bolus injection [1] | adverse effects due to gas infusion ([2]; efficacy experiments, infusion 3.2 mL/kg/hr, 76.8 mL/kg/day via duodenal catheter) | onset of action ([2]; mouse CDI model) | animals showing signs of infection in the 2nd week after inoculation and treatment (recurrence) ([2]; mouse CDI model, days 8-14, after treatment was complete) | cure rate ([2]; mouse CDI model) [%] | clinical severity and recovery ([2]; mouse CDI model) | clinical severity and recovery ([2]; mouse CDI model, listed as Enteric aerobization therapy) | survival ([2]; mouse CDI model) [%] |
| --- | --- | --- | --- | --- | --- | --- | --- | --- |
| O=O [EAT, oxygen] | No adverse effects | no adverse effects | slower onset of action | no recurrent infections | 100 | mildly ill compared to the infection control group, recover rapidly | reduces the severity of disease, accelerates recovery | 100 |
| CN[C@H](CC(C)C)C(=O)N[C@H]1C(=O)N[C@@H](CC(N)=O)C(=O)N[C@H]2C(=O)N[C@H]3C(=O)N[C@H](C(=O)N[C@H](C(=O)O)c4cc(O)cc(O)c4-c4cc3ccc4O)[C@H](O)c3ccc(c(Cl)c3)Oc3cc2cc(c3O[C@@H]2O[C@H](CO)[C@@H](O)[C@H](O)[C@H]2O[C@H]2C[C@](C)(N)[C@H](O)[C@H](C)O2)Oc2ccc(cc2Cl)[C@H]1O [vancomycin, reference compound] | – | – | more rapid onset of action | – | 30 | – | – | 100 |
